Assay results from publication PMC12711161, “Design, Synthesis, and Biological Characterization of Macromolecular Ester Prodrugs of a Selective Cyclooxygenase‐2 Inhibitor” (Chemmedchem, 2025).
Where two headings read alike, the source gives them in different places.

Key:
[1] = target: T1, COX‐1 (Mus musculus, UniProt P22437); experiment: COX‐1 inhibition of PGE2 production, arachidonic acid-stimulated J774 murine macrophage assay; format: cell-based; settings: J774 cells, 15 μM arachidonic acid, PGE2 by EIA, mean of three experiments
T1 construct: endogenous in cells; host or cells: J774 murine monocyte/macrophage cell line
T1 sequence (P22437 27-602): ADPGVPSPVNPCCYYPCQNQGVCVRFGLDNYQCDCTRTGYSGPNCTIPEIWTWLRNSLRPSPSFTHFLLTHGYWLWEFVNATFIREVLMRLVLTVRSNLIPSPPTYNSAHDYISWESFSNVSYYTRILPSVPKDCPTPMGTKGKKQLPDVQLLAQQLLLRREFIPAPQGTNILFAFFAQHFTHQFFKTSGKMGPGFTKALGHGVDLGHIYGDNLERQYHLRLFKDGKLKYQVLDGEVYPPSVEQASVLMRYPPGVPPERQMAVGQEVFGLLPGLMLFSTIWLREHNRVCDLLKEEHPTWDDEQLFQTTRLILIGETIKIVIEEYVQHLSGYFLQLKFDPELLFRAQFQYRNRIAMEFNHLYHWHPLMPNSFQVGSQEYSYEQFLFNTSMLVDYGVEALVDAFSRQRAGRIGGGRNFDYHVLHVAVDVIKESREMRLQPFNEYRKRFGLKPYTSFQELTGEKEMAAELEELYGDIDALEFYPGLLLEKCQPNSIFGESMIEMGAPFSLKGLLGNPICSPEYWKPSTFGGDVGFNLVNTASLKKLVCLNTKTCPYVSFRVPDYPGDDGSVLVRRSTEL
Experimental: All tested compounds didn’t inhibit the production of PGE2 via COX‐1 in AA‐stimulated J774 macrophages.
(§1) The cell line was grown in DMEM supplemented with 2 mM glutamine, 25 mM HEPES, 100 units mL^–1 penicillin, 100 μg mL^–1 streptomycin, 10% fetal bovine serum (FBS), and 1.2% sodium pyruvate. Cells were plated in 24‐well culture plates at a density of 2.5 × 10^5 cells mL^–1 and allowed to adhere at 37 °C in 5% CO2 for 2 h. Immediately before the experiments, the culture medium was replaced with fresh medium, and cells were stimulated as previously described.^[ [64] ^] The evaluation of COX‐1 inhibitory activity was achieved by pretreating cells with test compounds (10 μM) for 15 min and then incubating them at 37 °C for 30 min with 15 μM arachidonic acid to activate the constitutive COX. At the end of the incubation, the supernatants were collected to measure PGE2 levels by an enzyme immuno‐assay (EIA). To evaluate COX‐2 activity, cells were stimulated for 24 h with Escherichia coli lipopolysaccharide (LPS, 10 μg mL^–1) to induce COX‐2, in the absence or presence of test compounds (0.001–10 μM). The supernatants were collected for the measurement of PGE2 by means of EIA. Celecoxib was utilized as a reference compound for the selectivity index. Triplicate wells were used for the various treatment conditions in the cell culture assay throughout the experiments. Results are expressed as the mean of three experiments of the % inhibition of PGE2 production by test compounds with respect to control samples. Data fit was obtained using the sigmoidal dose–response equation (variable slope) (GraphPad software). The IC50 values were calculated by the GraphPad Instat program (GraphPad software).

[2] = target: T2, COX‐2 (Mus musculus, UniProt Q05769); experiment: COX‐2 inhibition of PGE2 production, LPS-stimulated J774 murine macrophage assay; format: cell-based; settings: for IC50: J774 cells, LPS 10 μg/mL 24 h, PGE2 by EIA, mean of three experiments; for COX‐1/COX‐2 [SI]: selectivity index IC50(COX‐1)/IC50(COX‐2)
T2 construct: endogenous in cells; host or cells: J774 murine monocyte/macrophage cell line, LPS-stimulated
T2 sequence (Q05769 18-604): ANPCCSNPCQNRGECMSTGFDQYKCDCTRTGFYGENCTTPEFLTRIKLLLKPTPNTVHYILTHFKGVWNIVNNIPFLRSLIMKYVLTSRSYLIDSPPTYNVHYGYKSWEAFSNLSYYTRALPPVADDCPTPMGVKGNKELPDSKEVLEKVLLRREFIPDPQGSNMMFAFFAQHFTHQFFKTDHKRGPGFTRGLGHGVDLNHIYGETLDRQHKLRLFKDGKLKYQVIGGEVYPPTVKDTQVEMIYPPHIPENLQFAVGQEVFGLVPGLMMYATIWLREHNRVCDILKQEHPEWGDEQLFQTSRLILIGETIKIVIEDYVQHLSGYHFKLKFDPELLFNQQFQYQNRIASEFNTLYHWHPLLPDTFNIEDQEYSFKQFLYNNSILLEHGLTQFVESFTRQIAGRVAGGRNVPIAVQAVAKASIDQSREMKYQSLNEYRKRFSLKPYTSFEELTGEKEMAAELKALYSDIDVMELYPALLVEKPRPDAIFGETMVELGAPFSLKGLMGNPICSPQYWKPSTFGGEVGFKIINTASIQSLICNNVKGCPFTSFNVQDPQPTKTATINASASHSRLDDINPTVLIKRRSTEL
Experimental: This required that hydrolysis was mandatory to obtain the possible release of bioactive compounds from the macromolecular ester prodrugs. […] All these considerations led us to consider the importance of the possible hydrolysis process, which could lead to release the bioactive compounds from the macromolecular ester prodrug 13a.
as §1

[3] = target: T1, COX‐1; settings: J774 murine macrophage assay, cited from earlier work
[4] = target: T2, COX‐2; settings: ref [24], cited from earlier work

| SMILES | IC50 [1] [nM] | IC50 [2] [nM] | COX‐1/COX‐2 [SI] [2] | further results |
| --- | --- | --- | --- | --- |
| COc1cc(/C=C/C(=O)O)ccc1OCc1cn(CCOCCOCCOCCOCCOCCOCCC(=O)OCCOCCc2cc(-c3ccc(S(C)(=O)=O)cc3)n(-c3ccc(F)cc3)c2C)nn1 [Compound 13b, (E)‐3‐(4‐((1‐(27‐(1‐(4‐Fluorophenyl)‐2‐methyl‐5‐(4‐(methylsulfonyl)phenyl)‐1H‐pyrrol‐3‐yl)‐21‐oxo‐3,6,9,12,15,18,22,25‐octaoxaheptacosyl)‐1H‐1,2,3‐triazol‐4‐yl)methoxy)‐3‐methoxyphenyl)acrylic acid] | > 10000 | 50 | >200 |  |
| Cc1c(CCOCCO)cc(-c2ccc(S(C)(=O)=O)cc2)n1-c1ccc(F)cc1 [Compound 7b] |  |  |  | IC50 ([3]; ref [27]): > 10000 nM |
| Cc1c(CCO)cc(-c2ccc(S(C)(=O)=O)cc2)n1-c1ccc(F)cc1 [Compound 21] |  |  |  | IC50 ([3]; ref [24]): > 10000 nM; IC50 ([4]; J774 murine macrophage assay): 70 nM; COX‐1/COX‐2 [SI] ([4]; selectivity index IC50(COX‐1)/IC50(COX‐2)): >142.8 |

Continued, in another order:

| IC50 [1] [nM] | IC50 [2] [nM] | COX‐1/COX‐2 [SI] [2] | SMILES | further results |
| --- | --- | --- | --- | --- |
| > 10000 | 15 | >666.7 | Cc1c(CCOCCOC(=O)CCOCCOCCOCCOCCOCCOCCN=[N+]=[N-])cc(-c2ccc(S(C)(=O)=O)cc2)n1-c1ccc(F)cc1 [Compound 14, 2‐(2‐(1‐(4‐Fluorophenyl)‐2‐methyl‐5‐(4‐(methylsulfonyl)phenyl)‐1H‐pyrrol‐3‐yl)ethoxy)ethyl 1‐azido‐3,6,9,12,15,18‐hexaoxahenicosan‐21‐oate] |  |
| > 10000 | > 10000 |  | COc1cc(/C=C/C(=O)O)ccc1OCc1cn(CCOCCOCCOCCOCCOCCOCCc2cc(-c3ccc(S(C)(=O)=O)cc3)n(-c3ccc(F)cc3)c2C)nn1 [Compound 12b, (E)‐3‐(4‐((1‐(20‐(1‐(4‐Fluorophenyl)‐2‐methyl‐5‐(4‐(methylsulfonyl)phenyl)‐1H‐pyrrol‐3‐yl)‐3,6,9,12,15,18‐hexaoxaicosyl)‐1H‐1,2,3‐triazol‐4‐yl)methoxy)‐3‐methoxyphenyl)acrylic acid] | inhibition of PGE2 production via COX‐2 (in words) ([2]; LPS‐stimulated macrophages): completely devoid of COX‐2 inhibitory activity |
| > 10000 | 500 | >20 | Cc1c(CCOCCOCCOCCOCCOCCOCCN=[N+]=[N-])cc(-c2ccc(S(C)(=O)=O)cc2)n1-c1ccc(F)cc1 [Compound 19, 3‐(20‐Azido‐3,6,9,12,15,18‐hexaoxaicosyl)‐1‐(4‐fluorophenyl)‐2‐methyl‐5‐(4‐(methylsulfonyl)phenyl)‐1H‐pyrrole] |  |
